Measured values taken from patent publication US6156798A, “Cyclobutyl-aryloxyarylsulfonylamino hydroxamic acid derivatives” (Pfizer Inc, priority 1999, dated 2000).

Legend:
MMP-13 = MMP-13 (Homo sapiens, UniProt P45452); assay: Inhibition of MMP-13; type: biochemical; settings: human recombinant MMP-13, fluorogenic substrate 10 μM
Protocol: Human recombinant MMP-13 is activated with 2 mM APMA (p-aminophenyl mercuric acetate) for 1.5 hours, at 37° C. and is diluted to […] in assay buffer (50 mM Tris, pH 7.5, 200 mM sodium chloride, 5 mM calcium chloride, 20 μM zinc chloride, 0.02% brij). Twenty-five microliters of diluted enzyme is added per well of a 96 well microfluor plate. The enzyme is then diluted in a 1:4 ratio in the assay by the addition of inhibitor and substrate to give a final concentration in the assay of […].
10 mM stock solutions of inhibitors are made up in dimethyl sulfoxide and then diluted in assay buffer as per the inhibitor dilution scheme for inhibition of human collagenase (MMP-1): Twenty-five microliters of each concentration is added in triplicate to the microfluor plate. The final concentrations in the assay are 30 μM, 3 μM, 0.3 μM, and 0.03 μM.
Substrate (Dnp-Pro-Cha-Gly-Cys(Me)-His-Ala-Lys(NMA)-NH2) is prepared as for inhibition of human collagenase (MMP-1) and […] is added to each well to give a final assay concentration of 10 μM. Fluorescence readings (360 nm excitation; 450 emission) are taken at time 0 and every 5 minutes for 1 hour.
Positive controls consist of enzyme and substrate with no inhibitor and blanks consist of substrate only.
IC50 's are determined as per inhibition of human collagenase (MMP-1). […]

MMP-1 = molecular target: T1, MMP-1 (Homo sapiens, UniProt P03956); assay: Inhibition of Human Collagenase (MMP-1); type: biochemical; settings: human recombinant collagenase, fluorogenic substrate 10 μM, room temperature
T1 sequence (P03956 100-469): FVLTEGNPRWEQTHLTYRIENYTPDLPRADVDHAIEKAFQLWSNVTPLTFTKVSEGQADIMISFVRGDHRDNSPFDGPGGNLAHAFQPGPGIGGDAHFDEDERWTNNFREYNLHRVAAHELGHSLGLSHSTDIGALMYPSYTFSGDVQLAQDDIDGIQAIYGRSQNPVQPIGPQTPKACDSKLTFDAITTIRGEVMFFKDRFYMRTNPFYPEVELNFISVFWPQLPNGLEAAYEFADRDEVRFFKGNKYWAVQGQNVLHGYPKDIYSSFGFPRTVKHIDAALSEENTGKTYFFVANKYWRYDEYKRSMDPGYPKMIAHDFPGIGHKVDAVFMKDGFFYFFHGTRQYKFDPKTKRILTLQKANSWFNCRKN
Protocol: Biological Assay Inhibition of Human Collacienase (MMP-1)
Human recombinant collagenase is activated with trypsin using the following ratio: 10 μg trypsin per 100 μg of collagenase. The trypsin and collagenase are incubated at room temperature for 10 minutes then a five fold excess (50 μg/10 μg trypsin) of soybean trypsin inhibitor is added.
10 mM stock solutions of inhibitors are made up in dimethyl sulfoxide and then dilute using the following Scheme:
Twenty-five microliters of each concentration is then added in triplicate to appropriate wells of a 96 well microfluor plate. The final concentration of inhibitor will be a 1:4 dilution after addition of enzyme and substrate. Positive controls (enzyme, no inhibitor) are set up in wells D1-D6 and blanks (no enzyme, no inhibitors) are set in wells D7-D12.
Collagenase is diluted to 400 ng/ml and 25 μl is then added to appropriate wells of the microfluor plate. Final concentration of collagenase in the assay is 100 ng/ml. […]
Fluorescence readings (360 nm excitation, 460 nm emission) were taken at time 0 and then at 20 minute intervals. […]
Fluorescence vs time is then plotted for both the blank and collagenase containing samples (data from triplicate determinations is averaged). […] Data is plotted as inhibitor concentration vs % control (inhibitor fluorescence divided by fluorescence of collagenase alone×100). […]

| Compound | IC50 (MMP-13) [nM] | IC50 (MMP-1) [nM] |
| --- | --- | --- |
| CCOC(=O)CCN(C1(C(=O)NO)CCC1)S(=O)(=O)c1ccc(Oc2ccc(F)cc2)cc1 [1 (R^1 = ethyl), Ethyl 3-[[4-(4-fluorophenoxy)phenylsulfonyl]-1-[(N-hydroxycarbamoyl)cyclobutyl]amino]propionate] | 0.6 | 18 |
| O=C(O)CCN(C1(C(=O)NO)CCC1)S(=O)(=O)c1ccc(Oc2ccc(F)cc2)cc1 [1 (R^1 = H), 3-[[4-(4-Fluorophenoxy)phenylsulfonyl]-1[(N-hydroxycarbamoyl)cyclobutyl]amino]propionic acid] | 0.6 | 90 |
